Measurements reported in patent US20200017495A1, “NOVEL HETEROCYCLIC COMPOUNDS AND THEIR USE IN PREVENTING OR TREATING BACTERIAL INFECTIONS” (priority 2017, published 2020).

Experiments:
Test in all cases: MIC of compounds alone and combined with antibacterials, broth microdilution (CLSI)
Format in all cases: cell-based
[1] = test system: Citrobacter freundii (CFR) isolates
How it was run: (§1)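 Log-phase isolates were inoculated at a final 5.10^5 CFU/mL in cation-adjusted Mueller-Hinton broth and incubated 16-20 h at 35° C in ambient air. MIC was the lowest concentration preventing visible growth; for combinations, the antibacterial MIC was read at each compound concentration.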

[2] = test system: Klebsiella oxytoca (KOX) isolates
How it was run: as §1

[3] = test system: Klebsiella pneumoniae (KPN) isolates
How it was run: as §1

C=CC1=C(C(=O)O)N2C(=O)[C@@H](NC(=O)/C(=N\OCC(=O)O)c3csc(N)n3)[C@H]2SC1 [FIX, Cefixime]
128 µg/mL: MIC ATB in combination ([3]; KPN 110376, CLA @ 4 μg/mL) | MIC ATB in combination ([3]; KPN 260252, CLA @ 4 μg/mL) | MIC ATB in combination ([3]; KPN ARA, CLA @ 4 μg/mL)
8 µg/mL: MIC ATB in combination ([1]; strain CFR UFR253, with AF3 @ 8 μg/mL) | MIC ATB in combination ([2]; KOX UFR224, CLA @ 4 μg/mL) | MIC ATB in combination ([3]; KPN 6299, CLA @ 4 μg/mL) | MIC ATB in combination ([3]; KPN 140513, AF2 @ 8 μg/mL) | MIC ATB in combination ([3]; KPN UFR27, AF2 @ 8 μg/mL) | MIC ATB in combination ([3]; KPN UFR27, AF3 @ 8 μg/mL)
2 µg/mL: MIC ATB in combination ([2]; KOX UFR21, AF2 @ 8 μg/mL) | MIC ATB in combination ([3]; KPN 160143, CLA @ 4 μg/mL)
64 µg/mL: MIC ATB in combination ([3]; KPN BAA-1898, CLA @ 4 μg/mL) | MIC ATB in combination ([3]; KPN UFR24, CLA @ 4 μg/mL) | MIC ATB in combination ([3]; KPN UFR25, CLA @ 4 μg/mL)
<=0.25 μg/mL: MIC ATB in combination ([1]; strain CFR UFR254, with AF2 @ 8 μg/mL) | MIC ATB in combination ([2]; KOX UFR173, AF2 @ 8 μg/mL) | MIC ATB in combination ([2]; KOX UFR173, AF3 @ 8 μg/mL) | MIC ATB in combination ([2]; KOX UFR223, CLA @ 4 μg/mL) | MIC ATB in combination ([3]; KPN 6299, AF2 @ 8 μg/mL) | MIC ATB in combination ([3]; KPN 6299, AF3 @ 8 μg/mL) | MIC ATB in combination ([3]; KPN 110376, AF3 @ 8 μg/mL) | MIC ATB in combination ([3]; KPN 131119, AF2 @ 8 μg/mL) | MIC ATB in combination ([3]; KPN 131119, AF3 @ 8 μg/mL) | MIC ATB in combination ([3]; KPN 190425, AF3 @ 8 μg/mL) | MIC ATB in combination ([3]; KPN 190425, CLA @ 4 μg/mL) | MIC ATB in combination ([3]; KPN 190551, CLA @ 4 μg/mL) | MIC ATB in combination ([3]; KPN 200047, CLA @ 4 μg/mL) | MIC ATB in combination ([3]; KPN 200327, CLA @ 4 μg/mL) | MIC ATB in combination ([3]; KPN 260251, AF2 @ 8 μg/mL) | MIC ATB in combination ([3]; KPN 260251, AF3 @ 8 μg/mL) | MIC ATB in combination ([3]; KPN 260376, CLA @ 4 μg/mL) | MIC ATB in combination ([3]; KPN 270077, AF3 @ 8 μg/mL) | MIC ATB in combination ([3]; KPN 700603, AF2 @ 8 μg/mL) | MIC ATB in combination ([3]; KPN ARA, AF2 @ 8 μg/mL) | MIC ATB in combination ([3]; KPN BAA-1898, AF2 @ 8 μg/mL) | MIC ATB in combination ([3]; KPN BAA-1898, AF3 @ 8 μg/mL) | MIC ATB in combination ([3]; KPN LIB, CLA @ 4 μg/mL) | MIC ATB in combination ([3]; KPN UFR22_O, AF2 @ 8 μg/mL) | MIC ATB in combination ([3]; KPN UFR22_O, AF3 @ 8 μg/mL) | MIC ATB in combination ([3]; KPN UFR22_O, CLA @ 4 μg/mL) | MIC ATB in combination ([3]; KPN UFR23, AF2 @ 8 μg/mL) | MIC ATB in combination ([3]; KPN UFR23, CLA @ 4 μg/mL)
0.5 µg/mL: MIC ATB in combination ([1]; strain CFR UFR254, with AF3 @ 8 μg/mL) | MIC ATB in combination ([3]; KPN 190128, CLA @ 4 μg/mL) | MIC ATB in combination ([3]; KPN 190270, AF2 @ 8 μg/mL) | MIC ATB in combination ([3]; KPN 190270, AF3 @ 8 μg/mL) | MIC ATB in combination ([3]; KPN 190425, AF2 @ 8 μg/mL) | MIC ATB in combination ([3]; KPN 270077, AF2 @ 8 μg/mL) | MIC ATB in combination ([3]; KPN 270077, CLA @ 4 μg/mL) | MIC ATB in combination ([3]; KPN 700603, AF3 @ 8 μg/mL) | MIC ATB in combination ([3]; KPN 700603, CLA @ 4 μg/mL) | MIC ATB in combination ([3]; KPN UFR24, AF2 @ 8 μg/mL) | MIC ATB in combination ([3]; KPN UFR24, AF3 @ 8 μg/mL)
>128 µg/mL: MIC ATB in combination ([1]; strain CFR UFR252, with AF2 @ 8 μg/mL) | MIC ATB in combination ([1]; strain CFR UFR252, with AF3 @ 8 μg/mL) | MIC ATB in combination ([1]; strain CFR UFR252, with CLA @ 4 μg/mL) | MIC ([1]; strain CFR UFR253, genotype TEM-1, SHV-12, OXA-48) | MIC ATB in combination ([1]; strain CFR UFR253, with CLA @ 4 μg/mL) | MIC ([2]; strain KOX UFR21, genotype TEM-1, CTX-M-15, OXA-48) | MIC ([2]; strain KOX UFR224, genotype CTX-M-15, OXA-48) | MIC ATB in combination ([3]; KPN 121206, AF2 @ 8 μg/mL) | MIC ATB in combination ([3]; KPN 121206, AF3 @ 8 μg/mL) | MIC ATB in combination ([3]; KPN 121206, CLA @ 4 μg/mL) | MIC ATB in combination ([3]; KPN 131119, CLA @ 4 μg/mL) | MIC ATB in combination ([3]; KPN 140513, CLA @ 4 μg/mL)
4 µg/mL: MIC ATB in combination ([2]; KOX UFR21, AF3 @ 8 μg/mL) | MIC ATB in combination ([2]; KOX UFR173, CLA @ 4 μg/mL)
32 µg/mL: MIC ([1]; strain CFR UFR254, genotype VEB-1b, OXA-48, qnrA) | MIC ATB in combination ([3]; KPN 140513, AF3 @ 8 μg/mL) | MIC ATB in combination ([3]; KPN 260251, CLA @ 4 μg/mL)
<=0.125 μg/mL: MIC ([2]; strain KOX UFR223, genotype SHV-11, OXA-48)
<0.25 µg/mL: MIC ATB in combination ([2]; KOX UFR223, AF2 @ 8 μg/mL) | MIC ATB in combination ([2]; KOX UFR223, AF3 @ 8 μg/mL) | MIC ATB in combination ([2]; KOX UFR224, AF2 @ 8 μg/mL) | MIC ATB in combination ([2]; KOX UFR224, AF3 @ 8 μg/mL) | MIC ATB in combination ([3]; KPN 110376, AF2 @ 8 μg/mL) | MIC ATB in combination ([3]; KPN 160143, AF2 @ 8 μg/mL) | MIC ATB in combination ([3]; KPN 160143, AF3 @ 8 μg/mL) | MIC ATB in combination ([3]; KPN 190551, AF2 @ 8 μg/mL) | MIC ATB in combination ([3]; KPN 190551, AF3 @ 8 μg/mL) | MIC ATB in combination ([3]; KPN 200047, AF2 @ 8 μg/mL) | MIC ATB in combination ([3]; KPN 200047, AF3 @ 8 μg/mL) | MIC ATB in combination ([3]; KPN 200327, AF2 @ 8 μg/mL) | MIC ATB in combination ([3]; KPN 200327, AF3 @ 8 μg/mL) | MIC ATB in combination ([3]; KPN 260376, AF2 @ 8 μg/mL) | MIC ATB in combination ([3]; KPN 260376, AF3 @ 8 μg/mL) | MIC ATB in combination ([3]; KPN ARA, AF3 @ 8 μg/mL) | MIC ATB in combination ([3]; KPN LIB, AF2 @ 8 μg/mL) | MIC ATB in combination ([3]; KPN LIB, AF3 @ 8 μg/mL) | MIC ATB in combination ([3]; KPN UFR23, AF3 @ 8 μg/mL) | MIC ATB in combination ([3]; KPN UFR25, AF2 @ 8 μg/mL) | MIC ATB in combination ([3]; KPN UFR25, AF3 @ 8 μg/mL)
1 µg/mL: MIC ATB in combination ([1]; strain CFR UFR253, with AF2 @ 8 μg/mL) | MIC ATB in combination ([3]; KPN 190128, AF2 @ 8 μg/mL) | MIC ATB in combination ([3]; KPN 190128, AF3 @ 8 μg/mL) | MIC ATB in combination ([3]; KPN 190270, CLA @ 4 μg/mL)
16 µg/mL: MIC ATB in combination ([1]; strain CFR UFR254, with CLA @ 4 μg/mL) | MIC ([2]; strain KOX UFR173, genotype OXY2-2) | MIC ATB in combination ([3]; KPN 260252, AF2 @ 8 μg/mL) | MIC ATB in combination ([3]; KPN 260252, AF3 @ 8 μg/mL)
